The target in this experiment is T1, HSP-90 (Homo sapiens, UniProt P07900).
T1 construct: fused on or other part: 6-His tag at the C-terminus
The experiment is described as follows: HSP-90 SPA (scintillation proximity assay) competition binding assay, displacement of tritiated propyl-Geldanamycin. The following applies: for inhibition at 1 µM: read-out: % inhibition @ 1 μM; for inhibition at 10 µM: read-out: % inhibition @ 10 μM. As to the method:
Compounds of the present invention were evaluated for potency against HSP-90 using a SPA (scintillation proximity assay) competition binding assay. Briefly, either full length or N-terminal HSP-90 that contains a 6-His tag on its C-terminus binds to copper on Yttrium-silicate scintillant beads via the His-tag. Tritiated propyl-Geldanamycin (pGA), whose structure is shown below, is an analog of a natural inhibitor of HSP-90 called Geldanamycin.
Tritiated pGA, which contains a tritiated propyl-amine group added at the #17 position, binds HSP-90 and brings the isotope into proximity with the beads. […] The beta signal emitted from the isotope excites the scintillant, which creates a measurable signal. As competitive compounds are added to the assay mixture, they compete with bound tritiated pGA at the ATP-binding site on the N-terminal of HSP-90. When a compound displaces the labeled pGA, the signal is reduced (the beta-particles are no longer in proximity with the bead). This reduction in signal is used to quantify the extent to which the inhibitor/compound is competitive with pGA.
Typical reaction solutions contained 30 nM HSP-90 and 200 nM ^3H-pGA in binding buffer (100 mM Hepes, pH 7.5 and 150 mM KCl). […] Inhibitors were added to the HSP-90/^3H-pGA solutions at eleven different concentrations for Ki determinations. […] To determine percent inhibition, the compound was tested at 1 and 10 μM. The final DMSO in the samples was 4%. Copper-Ysi beads (Amersham, #RPNQ0096) that have been diluted in binding buffer were added to each well to give a final concentration of 100 μg/well. The plates were sealed, covered with a foil-covered lid and shaken for 30 minutes at room temperature. The beads were allowed to settle for 30 minutes after which the plates were counted using a Packard TopCount NXT instrument. This procedure has also been adapted for medium throughput using a Beckman Biomek FX. Samples were run in duplicate and on two separate days to assure an accurate value of Ki.
For Ki determinations, the corrected cpm's (actual cpm's minus background) were plotted vs. inhibitor concentration using GraphPad Prism software. […] The IC50 was then used to calculate the Ki by using the Cheng-Prusoff equation: […]
This is normally true when the observed IC50 is […] the HSP-90 concentration. For a tight binding inhibitor, the following equation can be applied: […]
EL and ELo are the radioligand-HSP-90 complexes in the presence and absence of inhibitor, respectively. EL/ELo represents the fractional signal in the presence of inhibitor. Io, Eo, and Lo are the inhibitor, HSP-90, and radioligand concentrations, respectively.

Each structure is given as a SMILES string.

As usually defined, the inhibition is the relative decrease from the control value, in per cent. Take `O=C(c1ccc(O)cc1O)N1CCC(COc2ccc(F)cc2Cl)C1` (centres unmarked) [Example 89, 4-({3-[(2-chloro-4-fluorophenoxy)methyl]pyrrolidin-1-yl}carbonyl)benzene-1,3-diol]: the inhibition at 1 µM came out at 45.7% and the inhibition at 10 µM was 77.8%.

As to `O=C(c1ccc(O)cc1O)N1CCC(c2ccccc2)(c2ccccc2)CC1` [Example 54, 4-[(4,4-diphenylpiperidin-1-yl)carbonyl]benzene-1,3-diol], the inhibition at 1 µM turned out to be 50.3% and the inhibition at 10 µM was 85.5%.

On to `O=C(c1ccc(O)cc1O)N1CCOC(COc2cc(F)cc(F)c2)C1` (centres unmarked) [Example 114, 4-({2-[(3,5-difluorophenoxy)methyl]morpholin-4-yl}carbonyl)benzene-1,3-diol], for which the inhibition at 1 µM was found to be 60.2% and the inhibition at 10 µM was found to be 83.2%.

`O=C(c1ccc(O)cc1O)N1CCCCC1` [Example 63, 4-(piperidin-1-ylcarbonyl)benzene-1,3-diol]: the inhibition at 1 µM was 32.2% and the inhibition at 10 µM stood at 72%.

In the case of `O=C(c1ccc(O)cc1O)N1CCOCC(Cc2ccc(Cl)c(Cl)c2)C1` (centres unmarked) [Example 99, 4-{[6-(3,4-dichlorobenzyl)-1,4-oxazepan-4-yl]carbonyl}benzene-1,3-diol], the inhibition at 1 µM worked out at 52.2% and the inhibition at 10 µM turned out to be 80%.

Consider `O=C(c1ccc(O)cc1O)N1CCC2(C=Cc3cc(Cl)ccc3O2)CC1` [Example 79, 4-[(6-chloro-1′H-spiro[chromene-2,4′-piperidin]-1′-yl)carbonyl]benzene-1,3-diol], for which the inhibition at 1 µM is 57.7% and the inhibition at 10 µM worked out at 85.1%.

For `C[C@H](c1ccccc1)N(C)C(=O)c1ccc(O)cc1O` [Example 67, 2,4-dihydroxy-N-methyl-N-(1-phenylethyl)benzamide], the inhibition at 1 µM was -0.8% and the inhibition at 10 µM was found to be 35.4%.

For the compound `O=C(c1ccc(O)cc1O)N1CCCC1c1ccc(Cl)cc1` (centres unmarked) [Example 84, 4-{[2-(4-chlorophenyl)pyrrolidin-1-yl]carbonyl}benzene-1,3-diol], the inhibition at 1 µM was 76.2% and the inhibition at 10 µM came to 89.8%.

Take `O=C(c1ccc(O)cc1O)N1CCC(Oc2cccc(Cl)c2)CC1` [Example 69, 4-{[4-(3-chlorophenoxy)piperidin-1-yl]carbonyl}benzene-1,3-diol]: the inhibition at 1 µM was determined as 33.9% and the inhibition at 10 µM was determined as 76.6%.

On to `COC(=O)C1CCN(C(=O)c2ccc(O)cc2O)C1` (centres unmarked) [Example 94, methyl 1-(2,4-dihydroxybenzoyl)pyrrolidine-3-carboxylate], for which the inhibition at 1 µM amounted to 21.1% and the inhibition at 10 µM is 62.1%.

Consider `CN(Cc1ccccc1Cl)C(=O)c1ccc(O)cc1O` [Example 113, N-(2-chlorobenzyl)-2,4-dihydroxy-N-methylbenzamide], for which the inhibition at 1 µM amounted to 53% and the inhibition at 10 µM worked out at 81.9%.

Take `O=C(c1ccc(F)cc1O)N1Cc2ccccc2C1` [Example 29, 2-(1,3-dihydro-2H-isoindol-2-ylcarbonyl)-5-fluorophenyl]: the inhibition at 1 µM stood at 0% and the inhibition at 10 µM is 26.6%.

On to `O=C(c1ccc(O)cc1O)N1CCc2nnc(-c3cccc4ccccc34)n2CC1` [Example 134, (2,4-Dihydroxy-phenyl)-(3-naphthalen-1-yl-4,5,7,8-tetrahydro-1,2,3a,6-tetraaza-azulen-6-yl)-methanone], for which the inhibition at 1 µM worked out at 3.7% and the inhibition at 10 µM worked out at 37.6%.

`O=C(c1ccc(O)cc1O)N1CCSC1` [Example 117, 4-(1,3-thiazolidin-3-ylcarbonyl)benzene-1,3-diol]: the inhibition at 1 µM was determined as 65% and the inhibition at 10 µM was found to be 89.2%.

Regarding `O=C(c1ccc(O)cc1O)N1CCOCC2(CC(c3ccc(F)cc3)=NO2)C1` (centres unmarked) [Example 120, 4-{[3-(4-fluorophenyl)-1,7-dioxa-2,10-diazaspiro[4.6]undec-2-en-10-yl]carbonyl}benzene-1,3-diol], the inhibition at 1 µM was determined as 76.2% and the inhibition at 10 µM amounted to 89.4%.

For `O=C(c1ccc(O)cc1O)N1CCC(c2ncccn2)CC1` [Example 86, 4-[(4-pyrimidin-2-ylpiperidin-1-yl)carbonyl]benzene-1,3-diol], the inhibition at 1 µM stood at 23.9% and the inhibition at 10 µM stood at 59.9%.

With `O=C(c1ccc(O)cc1O)N1CCOC(COc2ccc(F)cc2Cl)C1` (centres unmarked) [Example 115, 4-({2-[(2-chloro-4-fluorophenoxy)methyl]morpholin-4-yl}carbonyl)benzene-1,3-diol], the inhibition at 1 µM worked out at 60.3% and the inhibition at 10 µM is 83.7%.

`CCc1nccc(-c2ccc(O)c(C(=O)N3Cc4ccccc4C3)c2)n1` [Example 34, 2-(1,3-dihydro-2H-isoindol-2-ylcarbonyl)-4-(2-ethylpyrimidin-4-yl)phenol]: the inhibition at 1 µM was -3.1% and the inhibition at 10 µM was 43%.

For the compound `Cc1ccccc1C1CCCN1C(=O)c1ccc(O)cc1O` (centres unmarked) [Example 73, 4-{[2-(2-methylphenyl)pyrrolidin-1-yl]carbonyl}benzene-1,3-diol], the inhibition at 1 µM was found to be 82.7% and the inhibition at 10 µM worked out at 91.6%.

As to `Cc1cc(C)c2c(c1)CCC1(CCN(C(=O)c3ccc(O)cc3O)CC1)O2` [Example 75, 4-[(6,8-dimethyl-3,4-dihydro-1′H-spiro[chromene-2,4′-piperidin]-1′-yl)carbonyl]benzene 1,3-diol], the inhibition at 1 µM came out at 51.6% and the inhibition at 10 µM came to 82%.

As for `CN(Cc1ccc(F)cc1)C(=O)c1ccc(O)cc1O` [Example 105, N-(4-fluorobenzyl)-2,4-dihydroxy-N-methylbenzamide], the inhibition at 1 µM is 30.2% and the inhibition at 10 µM stood at 69.3%.

Regarding `O=C(c1ccc(O)cc1O)N1CCOCC(O)(COCC2CC2)C1` (centres unmarked) [Example 38], the inhibition at 1 µM came out at 27.4% and the inhibition at 10 µM is 68.4%.

For the compound `O=C(c1ccc(O)cc1O)N1CCC(CCc2ncccn2)CC1` [Example 46, 4-{[4-(2-pyrimidin-2-ylethyl)piperidin-1-yl]carbonyl}benzene-1,3-diol], the inhibition at 1 µM came out at 44.9% and the inhibition at 10 µM worked out at 77.1%.

For the compound `O=C(c1ccc(O)cc1O)N1CCC(O)(c2ccc(Cl)c(C(F)(F)F)c2)CC1` [Example 78, 4-({4-[4-chloro-3-(trifluoromethyl)phenyl]-4-hydroxypiperidin-1-yl}carbonyl)benzene-1,3-diol], the inhibition at 1 µM stood at 17.7% and the inhibition at 10 µM was found to be 68.1%.

`CC(C)CN(C)C(=O)c1ccc(O)cc1O` [Example 39, 2,4-dihydroxy-N-isobutyl-N-methylbenzamide]: the inhibition at 1 µM was determined as 11.3% and the inhibition at 10 µM was found to be 52.3%.

For the compound `O=C(c1cc(-c2cc[nH]n2)ccc1O)N1Cc2ccccc2C1` [Example 33, 2-(1,3-dihydro-2H-isoindol-2-ylcarbonyl)-4-(1H-pyrazol-3-yl)phenol], the inhibition at 1 µM stood at 2% and the inhibition at 10 µM was 20.9%.

For `O=C(c1ccc(O)cc1O)N1CCC(CCc2cccc(Cl)c2)CC1` [Example 48, 4-({4-[2-(3-chlorophenyl)ethyl]piperidin-1-yl}carbonyl)benzene-1,3-diol], the inhibition at 1 µM was found to be 63.3% and the inhibition at 10 µM was 87.5%.

As for `O=C(c1ccc(O)cc1O)N1CCC(CCc2ccccc2)C1` (centres unmarked) [Example 65, 4-{[3-(2-phenylethyl)pyrrolidin-1-yl]carbonyl}benzene-1,3-diol], the inhibition at 1 µM was 69.7% and the inhibition at 10 µM was 87%.

Consider `COc1ccc(Cc2nnc3n2CCN(C(=O)c2ccc(O)cc2O)CC3)cc1` [Example 116, 4-{[3-(4-methoxybenzyl)-5,6,8,9-tetrahydro-7H-[1,2,4]triazolo[4,3-d][1,4]diazepin-7-yl]carbonyl}benzene-1,3-diol], for which the inhibition at 1 µM is 5% and the inhibition at 10 µM was determined as 62.1%.

Regarding `O=C(c1ccc(O)cc1O)N1CCc2ccccc2C1c1ccccc1` (centres unmarked) [Example 103, (2,4-Dihydroxy-phenyl)-(1-phenyl-3,4-dihydro-1H-isoquinolin-2-yl)-methanone], the inhibition at 1 µM turned out to be 64.5% and the inhibition at 10 µM was 87.8%.

In the case of `CN(Cc1nnc(-c2cccc(C#N)c2)o1)C(=O)c1ccc(O)cc1O` [Example 121, N-{[5-(3-cyanophenyl)-1,3,4-oxadiazol-2-yl]methyl}-2,4-dihydroxy-N-methylbenzamide], the inhibition at 1 µM stood at 10.6% and the inhibition at 10 µM came to 64.6%.
